The text below walks through data of US8829011B2 (Janssen Pharmaceutica NV, priority 2008, dated 2014).

Assay [1] has as its target T1, rat 5-HT7a receptor (Rattus norvegicus, UniProt P32305).
T1 construct: expressed in transfected cells; host or cells: HEK-293
In words: Affinity for 5-HT7 receptor binding sites (competition radioligand binding, [3H]5-CT). Conditions: membranes of HEK-293 cells with rat 5-HT7a; 1 nM [3H]5-CT; * = tested as hydrochloride salt. On the procedure: (§1) Stock drug solutions (10 mM) were prepared in DMSO (the final assay concentration of DMSO not exceeding 0.4%). Drug dilutions were prepared in assay buffer.
(§2) Sigmoidal inhibition curves were generated and fitted by nonlinear regression analysis (GraphPad Prism).
1. Affinity for 5-HT7 Receptor Binding Sites
The affinity of the compounds described in this invention for the 5-HT7 receptor binding site was evaluated by single competition radioligand binding assay. The assay was performed on membranes prepared from HEK-293 cells that had been subjected to stable transfection with the rat 5-HT7a receptor (GB: NM022938). Cells were scraped from the culture plates, suspended in Tris-HCl 50 mM pH 7.5 and collected through centrifugation (1000 rpm for 5 min). The cell pellets were homogenized (Polytron, 15 s, setting 5) in 50 mM Tris-HCl (pH 7.5), 5 mM EDTA. Following centrifugation (15,000 rpm for 25 min), membranes (135 μg protein/mL) were resuspended in the same buffer and incubated for 60 min at RT with 1 nM [^3H]5-CT in the presence of increasing concentration of test compounds. Nonspecific binding was defined in the presence of 10 μM 5-HT. Incubation was stopped by rapid filtration using the cell harvester (Packard). Radioactivity was counted in a TopCount-NXT (Packard). Experiments were conducted in triplicate.

The target in assay [2] is T2, human recombinant 5-HT2A receptor (Homo sapiens, UniProt P28223).
T2 construct: expressed in transfected cells; host or cells: NIH3T3
T2 sequence (P28223 whole entry): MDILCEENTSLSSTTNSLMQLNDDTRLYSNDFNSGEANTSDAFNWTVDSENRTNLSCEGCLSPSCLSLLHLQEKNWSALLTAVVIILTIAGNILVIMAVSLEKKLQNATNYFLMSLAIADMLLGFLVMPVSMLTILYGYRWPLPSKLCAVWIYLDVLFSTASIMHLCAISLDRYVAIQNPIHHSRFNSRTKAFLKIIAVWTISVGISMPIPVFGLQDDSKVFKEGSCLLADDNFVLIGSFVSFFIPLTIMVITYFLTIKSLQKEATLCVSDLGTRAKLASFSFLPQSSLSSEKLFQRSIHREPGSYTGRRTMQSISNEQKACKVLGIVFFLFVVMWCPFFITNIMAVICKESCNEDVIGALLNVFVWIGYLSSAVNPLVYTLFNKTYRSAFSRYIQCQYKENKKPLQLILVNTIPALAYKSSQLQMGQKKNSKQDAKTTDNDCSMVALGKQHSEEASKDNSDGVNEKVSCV
Description: Affinity for 5-HT2A receptor binding sites (competitive radioligand binding, [3H]ketanserin). Conditions: membranes of NIH3T3 with h5-HT2A, * = tested as hydrochloride salt. On the procedure: as §1, §2
(§3) 2. Affinity for 5HT2 Receptor Binding Sites
(§4) Receptor binding was performed using the human recombinant 5-HT2A (GB: X57830), 5-HT2B (GB: Z36748) and 5-HT2C (GB: M81778) receptors. The affinity of the compounds for the 3 different human 5-HT2 receptor subtypes was evaluated by competitive radioligand binding assays using [^3H]ketanserin (h5-HT2A) or [^3H]mesulergine (h5-HT2B and h5-HT2C). The assays were performed on membranes prepared from NIH3T3 stably transfected with h5-HT2A or CHO stably transfected with h5-HT2B and h5-HT2C.

In assay [3] the target is T3, human recombinant 5-HT2B receptor (Homo sapiens, UniProt P41595).
T3 construct: expressed in transfected cells; host or cells: CHO
T3 sequence (P41595 whole entry): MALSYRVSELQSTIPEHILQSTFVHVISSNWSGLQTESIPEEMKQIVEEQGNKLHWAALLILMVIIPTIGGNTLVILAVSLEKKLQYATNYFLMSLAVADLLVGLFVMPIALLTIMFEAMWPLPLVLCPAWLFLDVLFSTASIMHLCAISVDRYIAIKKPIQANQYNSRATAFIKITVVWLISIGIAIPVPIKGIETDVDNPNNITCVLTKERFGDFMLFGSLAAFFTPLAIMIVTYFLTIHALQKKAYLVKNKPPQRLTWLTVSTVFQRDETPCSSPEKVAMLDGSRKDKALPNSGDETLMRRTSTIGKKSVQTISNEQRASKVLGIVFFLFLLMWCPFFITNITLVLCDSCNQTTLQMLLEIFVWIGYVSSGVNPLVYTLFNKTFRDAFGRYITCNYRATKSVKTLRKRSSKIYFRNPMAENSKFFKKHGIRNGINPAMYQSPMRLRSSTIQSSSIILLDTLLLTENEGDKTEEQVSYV
Description: Affinity for 5-HT2B receptor binding sites (competitive radioligand binding, [3H]mesulergine). Conditions: membranes of CHO with h5-HT2B, * = tested as hydrochloride salt. On the procedure: as §1, §2, §3, §4

The target in assay [4] is T4, human recombinant 5-HT2C receptor (Homo sapiens, UniProt P28335).
T4 construct: expressed in transfected cells; host or cells: CHO
T4 sequence (P28335 33-458): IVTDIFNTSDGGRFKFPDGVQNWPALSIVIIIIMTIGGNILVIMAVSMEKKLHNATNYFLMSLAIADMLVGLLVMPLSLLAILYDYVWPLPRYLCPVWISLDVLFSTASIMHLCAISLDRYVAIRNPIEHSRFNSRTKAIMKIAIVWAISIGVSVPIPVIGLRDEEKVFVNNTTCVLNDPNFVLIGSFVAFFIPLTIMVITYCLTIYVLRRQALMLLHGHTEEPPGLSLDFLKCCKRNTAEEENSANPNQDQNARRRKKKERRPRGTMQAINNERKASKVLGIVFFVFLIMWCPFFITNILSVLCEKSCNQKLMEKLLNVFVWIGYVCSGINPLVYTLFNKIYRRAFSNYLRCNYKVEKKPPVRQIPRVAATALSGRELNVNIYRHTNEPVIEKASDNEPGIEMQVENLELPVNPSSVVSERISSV
Description: Affinity for 5-HT2C receptor binding sites (competitive radioligand binding, [3H]mesulergine). Conditions: membranes of CHO with h5-HT2C, * = tested as hydrochloride salt. On the procedure:
as §1, §2, §3, §4

Counter-ions that a name gives are not always drawn.

T1 sequence (P32305 whole entry): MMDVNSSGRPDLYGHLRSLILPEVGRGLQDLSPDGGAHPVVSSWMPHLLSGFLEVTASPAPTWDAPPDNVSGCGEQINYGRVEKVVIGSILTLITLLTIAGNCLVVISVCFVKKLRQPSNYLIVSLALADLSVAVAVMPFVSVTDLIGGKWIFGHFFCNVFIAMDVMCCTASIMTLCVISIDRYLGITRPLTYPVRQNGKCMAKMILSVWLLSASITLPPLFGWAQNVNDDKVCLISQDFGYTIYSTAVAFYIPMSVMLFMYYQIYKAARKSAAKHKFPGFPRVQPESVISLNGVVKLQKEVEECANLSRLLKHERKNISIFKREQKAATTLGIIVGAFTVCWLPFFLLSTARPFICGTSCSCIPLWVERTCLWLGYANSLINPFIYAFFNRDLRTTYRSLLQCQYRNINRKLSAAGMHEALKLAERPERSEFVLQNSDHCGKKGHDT

For `CCN(CC)c1nc2c(c(-c3ccc(F)cc3)n1)CNCCC2` [Example 15, Diethyl-[4-(4-fluoro-phenyl)-6,7,8,9-tetrahydro-5H-1,3,6-triaza-benzocyclohepten-2-yl]-amine], the inhibition constant Ki in assay [1] is above 10000 nM.

Consider `CCN(CC)c1nc2c(c(-c3ccc(C)cc3)n1)CNCCC2` [Example 16, Diethyl-(4-p-tolyl-6,7,8,9-tetrahydro-5H-1,3,6-triaza-benzocyclohepten-2-yl)-amine], for which the inhibition constant Ki was 500 nM in assay [1], 50 nM in assay [2], 320 nM in assay [3] and 630 nM in assay [4].

On to `CCN(CC)c1nc2c(c(-c3ccc(OC)cc3)n1)CNCCC2` [Example 17, Diethyl-[4-(4-methoxy-phenyl)-6,7,8,9-tetrahydro-5H-1,3,6-triaza-benzocyclohepten-2-yl]-amine], for which the inhibition constant (Ki) in assay [1] was above 10000 nM; in assay [2], 900 nM; in assay [3] it was 630 nM; in assay [4], 2500 nM.

Regarding `CCN(CC)c1nc2c(c(-c3ccc(C#N)cc3)n1)CNCCC2` [Example 18, 4-(2-Diethylamino-6,7,8,9-tetrahydro-5H-1,3,6-triaza-benzocyclohepten-4-yl)-benzonitrile], the Ki in assay [1] is above 10000 nM.

On to `Cc1ccc(-c2nc(N3CCCCC3)nc3c2CNCCC3)cc1` [Example 19, 2-Piperidin-1-yl-4-p-tolyl-6,7,8,9-tetrahydro-5H-1,3,6-triaza-benzocycloheptene], for which the inhibitory constant (Ki) was above 10000 nM in assay [1], 1500 nM in assay [2], 1000 nM in assay [3] and 3160 nM in assay [4].

Regarding `Fc1ccc(-c2nc(N3CCCCC3)nc3c2CNCCC3)cc1` [Example 20, 4-(4-Fluoro-phenyl)-2-piperidin-1-yl-6,7,8,9-tetrahydro-5H-1,3,6-triaza-benzocycloheptene hydrochloride], the inhibition constant (Ki) in assay [1] was above 10000 nM; in assay [2] it was 300 nM; in assay [3], 790 nM; in assay [4], 6310 nM.

On to `COc1ccc(-c2nc(N3CCCCC3)nc3c2CNCCC3)cc1` [Example 21, 4-(4-Methoxy-phenyl)-2-piperidin-1-yl-6,7,8,9-tetrahydro-5H-1,3,6-triaza-benzocycloheptene hydrochloride], for which, in assay [1], the inhibitory constant (Ki) is above 10000 nM.

`N#Cc1ccc(-c2nc(N3CCCCC3)nc3c2CNCCC3)cc1` [Example 22, 4-(2-Piperidin-1-yl-6,7,8,9-tetrahydro-5H-1,3,6-triaza-benzocyclohepten-4-yl)-benzonitrile hydrochloride]: the Ki was above 10000 nM in assay [1], above 10000 nM in assay [2], 2510 nM in assay [3] and above 10000 nM in assay [4].

On to `CCN(CC)c1nc2c(c(-c3ccc(F)cc3)n1)CCN(Cc1ccccc1)C2` [Example 23, [7-Benzyl-4-(4-fluoro-phenyl)-5,6,7,8-tetrahydro-pyrido[3,4-d]pyrimidin-2-yl]-diethyl-amine], for which the inhibitory constant (Ki) in assay [1] is 620 nM; in assay [2] it was 60 nM; in assay [3], 350 nM; in assay [4], 2800 nM.

In the case of `CCN(CC)c1nc2c(c(-c3ccc(C)cc3)n1)CCN(Cc1ccccc1)C2` [Example 25, (7-Benzyl-4-p-tolyl-5,6,7,8-tetrahydro-pyrido[3,4-d]pyrimidin-2-yl)-diethyl-amine], the inhibitory constant (Ki) in assay [1] is above 10000 nM; in assay [2], 190 nM; in assay [3], 620 nM; in assay [4] it was above 10000 nM.

On to `CCN(CC)c1nc2c(c(-c3ccc(OC)cc3)n1)CCN(Cc1ccccc1)C2` [Example 27, [7-Benzyl-4-(4-methoxy-phenyl)-5,6,7,8-tetrahydro-pyrido[3,4-d]pyrimidin-2-yl]-diethyl-amine], for which the Ki is above 10000 nM in assay [1], 1700 nM in assay [2], 660 nM in assay [3] and above 10000 nM in assay [4].

Turning to `CCN(CC)c1nc2c(c(-c3ccc(C#N)cc3)n1)CCN(Cc1ccccc1)C2` [Example 29, 4-(7-Benzyl-2-diethylamino-5,6,7,8-tetrahydro-pyrido[3,4-d]pyrimidin-4-yl)-benzonitrile], the inhibitory constant (Ki) in assay [1] was above 10000 nM; in assay [2], 650 nM; in assay [3], 1100 nM; in assay [4] it was above 10000 nM.

On to `Fc1ccc(-c2nc(N3CCCCCC3)nc3c2CCN(Cc2ccccc2)C3)cc1` [Example 31, 2-Azepan-1-yl-7-benzyl-4-(4-fluoro-phenyl)-5,6,7,8-tetrahydro-pyrido[3,4-d]pyrimidine], for which the Ki was above 10000 nM in assay [1], 230 nM in assay [2], 1600 nM in assay [3] and 3200 nM in assay [4].

Consider `Fc1ccc(-c2nc(N3CCCCCC3)nc3c2CCNC3)cc1` [Example 32, 2-Azepan-1-yl-4-(4-fluoro-phenyl)-5,6,7,8-tetrahydro-pyrido[3,4-d]pyrimidine], for which the Ki in assay [1] came to 270 nM; in assay [2] it was 9 nM; in assay [3], 30 nM; in assay [4], 110 nM.

Turning to `Cc1ccc(-c2nc(N3CCCCCC3)nc3c2CCN(Cc2ccccc2)C3)cc1` [Example 33, 2-Azepan-1-yl-7-benzyl-4-p-tolyl-5,6,7,8-tetrahydro-pyrido[3,4-d]pyrimidine], the Ki is above 10000 nM in assay [1], 540 nM in assay [2], 800 nM in assay [3] and 3200 nM in assay [4].

As for `Cc1ccc(-c2nc(N3CCCCCC3)nc3c2CCNC3)cc1` [Example 34, 2-Azepan-1-yl-4-p-tolyl-5,6,7,8-tetrahydro-pyrido[3,4-d]pyrimidine], the Ki in assay [1] came to 90 nM; in assay [2], 18 nM; in assay [3], 40 nM; in assay [4] it was 270 nM.

With `COc1ccc(-c2nc(N3CCCCCC3)nc3c2CCN(Cc2ccccc2)C3)cc1` [Example 35, 2-Azepan-1-yl-7-benzyl-4-(4-methoxy-phenyl)-5,6,7,8-tetrahydro-pyrido[3,4-d]pyrimidine], the Ki in assay [1] was above 10000 nM; in assay [2], above 10000 nM; in assay [3], 700 nM; in assay [4] it was above 10000 nM.

As for `COc1ccc(-c2nc(N3CCCCCC3)nc3c2CCNC3)cc1` [Example 36, 2-Azepan-1-yl-4-(4-methoxy-phenyl)-5,6,7,8-tetrahydro-pyrido[3,4-d]pyrimidine], the inhibition constant (Ki) in assay [1] turned out to be 210 nM; in assay [2], 160 nM; in assay [3], 100 nM; in assay [4] it was 320 nM.

In the case of `N#Cc1ccc(-c2nc(N3CCCCCC3)nc3c2CCN(Cc2ccccc2)C3)cc1` [Example 37, 4-(2-Azepan-1-yl-7-benzyl-5,6,7,8-tetrahydro-pyrido[3,4-d]pyrimidin-4-yl)-benzonitrile], the Ki in assay [1] was above 10000 nM; in assay [2], 2400 nM; in assay [3], 1300 nM; in assay [4], above 10000 nM.

Take `Fc1ccc(-c2nc(N3CCCC3)nc3c2CNCC3)cc1` [Example 41, 4-(4-Fluoro-phenyl)-2-pyrrolidin-1-yl-5,6,7,8-tetrahydro-pyrido[4,3-d]pyrimidine hydrochloride]: the Ki in assay [1] was above 10000 nM; in assay [2], 25 nM; in assay [3], 750 nM; in assay [4], 940 nM.

`CCN(C)c1nc2c(c(-c3ccc(F)cc3)n1)CNCC2` [Example 44, Ethyl-[4-(4-fluoro-phenyl)-5,6,7,8-tetrahydro-pyrido[4,3-d]pyrimidin-2-yl]-methyl-amine hydrochloride]: the inhibitory constant (Ki) in assay [1] is 2000 nM; in assay [2], 9.5 nM; in assay [3], 180 nM; in assay [4], 300 nM.

With `CCN(CC)c1nc2c(c(-c3ccc(Cl)cc3)n1)CNCC2` [Example 46, [4-(4-Chloro-phenyl)-5,6,7,8-tetrahydro-pyrido[4,3-d]pyrimidin-2-yl]-diethyl-amine hydrochloride], the Ki in assay [1] came out at 100 nM; in assay [2] it was 30 nM; in assay [3] it was 200 nM; in assay [4], 250 nM.
